Laboratory results reported in patent publication US20100000032A1, “PHENOXAZINE DYES” (Wetlands Incubator sprl, priority 2008, published 2010).
Each block holds one compound with its values, some of them ahead of it.

How the values were obtained:
[1] = Light fastness of dyeing, ISO 105 B02; type: physicochemical; conditions: polyamide 6 knitted fabric, rating 5 = no colour change, 1 = high colour change
Procedure: (§1) The fastness properties of the dyeings (textile and leather) were measured in accordance with ISO standards mentioned in Table 3. The results shown in Table 3 are the visual assessment described in ISO105-A02: 1993 textiles—test for colour fastness—part A02. On this scale, a rating of 5 means no colour change and a rating of 1 means a high colour change.

[2] = Washing fastness of dyeing, ISO 105 C06: A2S; type: physicochemical; conditions: for Washing fastness, staining, acrylic / Washing fastness, staining, cellulose acetate / Washing fastness, staining, cotton / Washing fastness, staining, nylon / Washing fastness, staining, polyester / Washing fastness, staining, wool: rating 1-5; for Washing fastness, colour change: polyamide 6 knitted fabric, rating 5 = no colour change, 1 = high colour change
Procedure: as §1

[3] = Chlorinated water fastness of dyeing, ISO 105 E03; type: physicochemical; conditions: polyamide 6 knitted fabric, rating 5 = no colour change, 1 = high colour change
Procedure: as §1

[4] = Water fastness of dyeing, ISO 105 E01; type: physicochemical; conditions: for Water fastness, staining, acrylic / Water fastness, staining, cellulose acetate / Water fastness, staining, cotton / Water fastness, staining, nylon / Water fastness, staining, polyester / Water fastness, staining, wool: rating 1-5; for Water fastness, colour change: polyamide 6 knitted fabric, rating 5 = no colour change, 1 = high colour change
Procedure: as §1

[5] = system: Caco-2 human intestinal cell line; assay: In vitro toxicity, neutral red uptake; type: cell-based; conditions: concentration at which 50% of the cells die, exposure at least 48 hr, highest concentration tested 0.5 g/L
Procedure: (§2) The toxicity of compounds 17 and 18 were assessed with an in vitro method using the Caco-2 human intestinal cell line and the rainbow trout gonad (RTG-2) fish cell line. […] Subsequently, the cells were exposed to a series of concentrations of the test compounds, and two blanks, for at least 48 hr until 90% confluence was attained in the blanks. The highest concentration tested being 0.5 g/L. Thereafter, the exposure medium containing the test compounds was decanted and the cells in the microplate wells were gently washed with phosphate buffered saline solution. In order to measure the number of viable cells remaining after the exposure to the test compounds, the cells were exposed to a solution of neutral red in cell culture medium for 3 hr. […] Finally, the neutral red solution was decanted, the wells were again gently washed and then a solution of 1% acetic acid in 50% ethanol was added to the wells to dissolve the neutral red taken up by the viable cells. The absorbance of each well at 540 nm was measure with an appropriate microplate reader. The amount of neutral red present in each well is an indication of the number of viable cells and when compared to the values for the blanks can be used to calculate a percentage of cell death. An IC50 value, the concentration of the test compounds at which 50% of the cells die, can be determined if at least one of the tested compounds produces more than 50% cell death and at least one produces less; the results concerning compounds 17 and 18 are given in Table 4. If none of the tested concentrations produces more than 50% cell death, than an estimating can be made if at least some effect is noticeable. Comparing IC50 values among test compounds and with known toxicants allows for an assessment of their relative toxicities.

[6] = system: rainbow trout gonad (RTG-2) fish cell line; assay: In vitro toxicity, neutral red uptake; type: cell-based; conditions: Oncorhynchus mykiss, concentration at which 50% of the cells die, exposure at least 48 hr, highest concentration tested 0.5 g/L, read-out: NRTG-2 cells IC50
Procedure: as §2

Light fastness ([1]; 1% omf): 3 | Washing fastness, staining, acrylic ([2]; 1% omf): 4/5 | Washing fastness, staining, cellulose acetate ([2]; 1% omf): 4/5 | Washing fastness, staining, cotton ([2]; 1% omf): 4/5 | Washing fastness, staining, nylon ([2]; 1% omf): 4/5 | Washing fastness, staining, polyester ([2]; 1% omf): 4/5 | Washing fastness, staining, wool ([2]; 1% omf): 4/5 | Washing fastness, colour change ([2]; 1% omf): 4 | Chlorinated water fastness, colour change ([3]; 1% omf): 3/4 | Water fastness, staining, acrylic ([4]; 1% omf): 4/5 | Water fastness, staining, cellulose acetate ([4]; 1% omf): 4 | Water fastness, staining, cotton ([4]; 1% omf): 4 | Water fastness, staining, nylon ([4]; 1% omf): 3 | Water fastness, staining, polyester ([4]; 1% omf): 4/5 | Water fastness, staining, wool ([4]; 1% omf): 2/3 | Water fastness, colour change ([4]; 1% omf): 4
SMILES: Nc1cc2nc3cc(S(=O)(=O)O)ccc3oc-2cc1=O [Compound 18, 2-Amino-3oxo-3H-phenoxazine-8-sulfonic acid]
IC50 [5]: > 686 µg/mL

Light fastness ([1]; 2% omf): >3 | Washing fastness, staining, acrylic ([2]; 2% omf): 4/5 | Washing fastness, staining, cellulose acetate ([2]; 2% omf): 4/5 | Washing fastness, staining, cotton ([2]; 2% omf): 4/5 | Washing fastness, staining, nylon ([2]; 2% omf): 3/4 | Washing fastness, staining, polyester ([2]; 2% omf): 4/5 | Washing fastness, staining, wool ([2]; 2% omf): 4 | Washing fastness, colour change ([2]; 2% omf): 3 | Chlorinated water fastness, colour change ([3]; 2% omf): 3 | Water fastness, staining, acrylic ([4]; 2% omf): 4/5 | Water fastness, staining, cellulose acetate ([4]; 2% omf): 4/5 | Water fastness, staining, cotton ([4]; 2% omf): 4/5 | Water fastness, staining, nylon ([4]; 2% omf): 3/4 | Water fastness, staining, polyester ([4]; 2% omf): 4/5 | Water fastness, staining, wool ([4]; 2% omf): 4 | Water fastness, colour change ([4]; 2% omf): 3
SMILES: Nc1c(S(=O)(=O)O)c2nc3c(S(=O)(=O)O)cccc3oc-2cc1=O [Compound 17, 2-Amino-3oxo-3H-phenoxazine-1,9-disulfonic acid]
IC50 [5]: > 550 µg/mL | IC50 [6]: > 780 µg/mL
